Measured values: ChEMBL document CHEMBL1649393, “Synthesis and antimicrobial activity of thiosemicarbazides, s-triazoles and their Mannich bases bearing 3-chlorophenyl moiety” (2011)
Converted amounts (≈) assume the structure as drawn.

Experiments:
Assay type in all cases: functional
Bacillus subtilis [1] = assay: Antimicrobial activity against Bacillus subtilis ATCC […] after 18 hrs by broth microdilution method
[2] = system: Staphylococcus epidermidis; assay: Antimicrobial activity against Staphylococcus epidermidis ATCC 12228 after 18 hrs by broth microdilution method; conditions: ATCC 12228, 18 h
Bacillus cereus [3] = assay: Antimicrobial activity against Bacillus cereus ATCC 10876 after 18 hrs by broth microdilution method; conditions: ATCC 10876, 18 h
Staphylococcus aureus [4] = assay: Antimicrobial activity against Staphylococcus aureus ATCC 25923 after 18 hrs by broth microdilution method; conditions: ATCC 25923, 18 h
Staphylococcus aureus [5] = assay: Antimicrobial activity against Staphylococcus aureus ATCC 6538 after 18 hrs by broth microdilution method; conditions: ATCC 6538, 18 h
Micrococcus luteus [6] = assay: Antimicrobial activity against Micrococcus luteus ATCC 10240 after 18 hrs by broth microdilution method; conditions: ATCC 10240, 18 h
Klebsiella pneumoniae [7] = assay: Antimicrobial activity against Klebsiella pneumoniae ATCC 13883 assessed as >99.9 % reduction in CFU after 18 hrs by broth microdilution method; conditions: ATCC 13883, 18 h
Proteus mirabilis [8] = assay: Antimicrobial activity against Proteus mirabilis ATCC 12453 assessed as >99.9 % reduction in CFU after 18 hrs by broth microdilution method; conditions: ATCC 12453, 18 h
Klebsiella pneumoniae [9] = assay: Antimicrobial activity against Klebsiella pneumoniae ATCC 13883 after 18 hrs by broth microdilution method; conditions: ATCC 13883, 18 h
Bacillus cereus [10] = assay: Antimicrobial activity against Bacillus cereus ATCC 10876 assessed as >99.9 % reduction in CFU after 18 hrs by broth microdilution method; conditions: ATCC 10876, 18 h
Staphylococcus aureus [11] = assay: Antimicrobial activity against Staphylococcus aureus ATCC 6538 assessed as >99.9 % reduction in CFU after 18 hrs by broth microdilution method; conditions: ATCC 6538, 18 h
Proteus mirabilis [12] = assay: Antimicrobial activity against Proteus mirabilis ATCC 12453 after 18 hrs by broth microdilution method; conditions: ATCC 12453, 18 h
Bacillus subtilis [13] = assay: Antimicrobial activity against Bacillus subtilis ATCC […] assessed as >99.9 % reduction in CFU after 18 hrs by broth microdilution method
Staphylococcus aureus [14] = assay: Antimicrobial activity against Staphylococcus aureus ATCC 25923 assessed as >99.9 % reduction in CFU after 18 hrs by broth microdilution method; conditions: ATCC 25923, 18 h
Escherichia coli [15] = assay: Antimicrobial activity against Escherichia coli ATCC 25922 after 18 hrs by broth microdilution method; conditions: ATCC 25922, 18 h
Escherichia coli [16] = assay: Antimicrobial activity against Escherichia coli ATCC 25922 assessed as >99.9 % reduction in CFU after 18 hrs by broth microdilution method; conditions: ATCC 25922, 18 h
[17] = system: Staphylococcus epidermidis; assay: Antimicrobial activity against Staphylococcus epidermidis ATCC 12228 assessed as >99.9 % reduction in CFU after 18 hrs by broth microdilution method; conditions: ATCC 12228, 18 h
Micrococcus luteus [18] = assay: Antimicrobial activity against Micrococcus luteus ATCC 10240 assessed as >99.9 % reduction in CFU after 18 hrs by broth microdilution method; conditions: ATCC 10240, 18 h

Structure (SMILES) | MIC (Bacillus subtilis [1]) [µg/mL] | MIC [2] [µg/mL] | MIC (Bacillus cereus [3]) [µg/mL] | MIC (Staphylococcus aureus [4]) [µg/mL] | MIC (Staphylococcus aureus [5]) [µg/mL] | MIC (Micrococcus luteus [6]) [µg/mL] | other results
O=C(NNC(=S)Nc1ccccc1Br)c1cccc(Cl)c1 | 125 (≈ 325 µM) | 125 (≈ 325 µM) | 62.5 (≈ 162 µM) | 62.5 (≈ 162 µM) | 31.2 (≈ 81.2 µM) | 62.5 (≈ 162 µM) | –
O=C(NNC(=S)Nc1c(F)cccc1F)c1cccc(Cl)c1 | 250 (≈ 731 µM) | 250 (≈ 731 µM) | 250 (≈ 731 µM) | 125 (≈ 366 µM) | 250 (≈ 731 µM) | 250 (≈ 731 µM) | –
O=C(NNC(=S)Nc1ccccc1)c1cccc(Cl)c1 | 125 (≈ 409 µM) | 125 (≈ 409 µM) | 125 (≈ 409 µM) | 125 (≈ 409 µM) | 125 (≈ 409 µM) | 125 (≈ 409 µM) | –
S=c1[nH]nc(-c2cccc(Cl)c2)n1-c1ccc(Br)cc1 | 15.6 (≈ 42.6 µM) | 31.2 (≈ 85.2 µM) | 15.6 (≈ 42.6 µM) | 31.2 (≈ 85.2 µM) | 31.2 (≈ 85.2 µM) | 31.2 (≈ 85.2 µM) | –
S=c1[nH]nc(-c2cccc(Cl)c2)n1-c1ccccc1 | 125 (≈ 434 µM) | > 1000 | > 1000 | > 1000 | > 1000 | > 1000 | –
O=C(NNC(=S)Nc1ccc(Br)cc1)c1cccc(Cl)c1 | 31.2 (≈ 81.2 µM) | 15.6 (≈ 40.6 µM) | 15.6 (≈ 40.6 µM) | 15.6 (≈ 40.6 µM) | 15.6 (≈ 40.6 µM) | 15.6 (≈ 40.6 µM) | –
S=c1[nH]nc(-c2cccc(Cl)c2)n1-c1ccccc1I | > 1000 | > 1000 | > 1000 | > 1000 | > 1000 | > 1000 | –
O=C(NNC(=S)Nc1cc(F)ccc1F)c1cccc(Cl)c1 | 125 (≈ 366 µM) | 125 (≈ 366 µM) | 125 (≈ 366 µM) | 62.5 (≈ 183 µM) | 62.5 (≈ 183 µM) | 62.5 (≈ 183 µM) | –
S=c1n(CN2CCCC2)nc(-c2cccc(Cl)c2)n1-c1ccccc1I | 250 (≈ 503 µM) | 500 (≈ 1010 µM) | 500 (≈ 1010 µM) | 500 (≈ 1010 µM) | 500 (≈ 1010 µM) | 500 (≈ 1010 µM) | MBC (Klebsiella pneumoniae [7]; read-out: MBC): > 1000 µg/mL; MBC (Proteus mirabilis [8]; read-out: MBC): > 1000 µg/mL; MIC (Klebsiella pneumoniae [9]): > 1000 µg/mL; MBC (Bacillus cereus [10]): > 1000 µg/mL; MBC (Staphylococcus aureus [11]): > 1000 µg/mL; MIC (Proteus mirabilis [12]; read-out: MIC): > 1000 µg/mL; MBC (Bacillus subtilis [13]): > 1000 µg/mL; MBC (Staphylococcus aureus [14]): > 1000 µg/mL; MIC (Escherichia coli [15]): > 1000 µg/mL; MBC (Escherichia coli [16]): > 1000 µg/mL; MBC [17]: > 1000 µg/mL; MBC (Micrococcus luteus [18]): > 1000 µg/mL
S=c1n(CN2CCCC2)nc(-c2cccc(Cl)c2)n1-c1ccc(Cl)cc1 | 125 (≈ 308 µM) | 1000 (≈ 2470 µM) | 125 (≈ 308 µM) | 125 (≈ 308 µM) | > 1000 | 1000 (≈ 2470 µM) | MBC (Klebsiella pneumoniae [7]; read-out: MBC): 1000 µg/mL (≈ 2470 µM); MBC (Proteus mirabilis [8]; read-out: MBC): > 1000 µg/mL; MIC (Klebsiella pneumoniae [9]): 500 µg/mL (≈ 1230 µM); MBC (Bacillus cereus [10]): > 1000 µg/mL; MBC (Staphylococcus aureus [11]): > 1000 µg/mL; MIC (Proteus mirabilis [12]; read-out: MIC): > 1000 µg/mL; MBC (Bacillus subtilis [13]): > 1000 µg/mL; MBC (Staphylococcus aureus [14]): 125 µg/mL (≈ 308 µM); MIC (Escherichia coli [15]): 1000 µg/mL (≈ 2470 µM); MBC (Escherichia coli [16]): 1000 µg/mL (≈ 2470 µM); MBC [17]: 1000 µg/mL (≈ 2470 µM); MBC (Micrococcus luteus [18]): 1000 µg/mL (≈ 2470 µM)
S=c1[nH]nc(-c2cccc(Cl)c2)n1-c1ccccc1Br | 1000 (≈ 2730 µM) | 125 (≈ 341 µM) | 1000 (≈ 2730 µM) | > 1000 | > 1000 | > 1000 | –
COc1ccc(-n2c(-c3cccc(Cl)c3)n[nH]c2=S)cc1 | > 1000 | > 1000 | > 1000 | > 1000 | > 1000 | > 1000 | –
Fc1ccc(-n2c(-c3cccc(Cl)c3)n[nH]c2=S)cc1 | > 1000 | > 1000 | > 1000 | > 1000 | > 1000 | > 1000 | –
Fc1cccc(F)c1-n1c(-c2cccc(Cl)c2)nn(CN2CCCC2)c1=S | 125 (≈ 307 µM) | 125 (≈ 307 µM) | 125 (≈ 307 µM) | 125 (≈ 307 µM) | 125 (≈ 307 µM) | – | MBC (Klebsiella pneumoniae [7]): 1000 µg/mL (≈ 2460 µM); MBC (Proteus mirabilis [8]): 1000 µg/mL (≈ 2460 µM); MBC (Klebsiella pneumoniae [9]): 1000 µg/mL (≈ 2460 µM); MBC (Bacillus cereus [10]): 1000 µg/mL (≈ 2460 µM); MBC (Staphylococcus aureus [11]): 500 µg/mL (≈ 1230 µM); MIC (Proteus mirabilis [12]): 1000 µg/mL (≈ 2460 µM); MBC (Bacillus subtilis [13]): 500 µg/mL (≈ 1230 µM); MBC (Staphylococcus aureus [14]): 500 µg/mL (≈ 1230 µM); MIC (Escherichia coli [15]): 500 µg/mL (≈ 1230 µM); MBC (Escherichia coli [16]): 1000 µg/mL (≈ 2460 µM); MBC [17]: 1000 µg/mL (≈ 2460 µM); MBC (Micrococcus luteus [6]): 1000 µg/mL (≈ 2460 µM); MBC (Micrococcus luteus [18]): 1000 µg/mL (≈ 2460 µM)
